Source: US20240285770A1, “PRECIPITATION SUPPRESSING AGENT” (Nippon Shinyaku Co., Ltd., priority 2021, published 2024)
Where two headings read alike, the source gives them in different places.

Experiments:
[1] = Plasma concentrations and estimation of urinary PMO No. 12 concentration after administration to cynomolgus monkeys; format: in vivo; details: male cynomolgus monkeys; for Plasma concentration 0 hr (a) / Plasma concentration 0.25 hr (b) / Plasma concentration 0.5 hr (c) / Plasma concentration 1 hr (d) / Plasma concentration 2 hr (e) / Plasma concentration 6 hr (f) / Plasma concentration 24 hr (g): average of 3 animals; for Estimated urinary concentration at 0.25 hr (l): amount of urine up to 0.25 hr assumed 3.91 mL; for Average plasma concentration from 0 hr to 0.25 hr (j): average of values a and b; for Amount excreted up to 0.25 hr (k): calculated by using CLtot
Description: (§1) For setting the test conditions such as the concentrations of sugar and antisense oligomers assumed to be in urine, D-mannitol, which is […] and corresponds to a reduced form of D-mannose, and antisense oligomers were administered to cynomolgus monkeys, and the urinary concentration shortly after administration were estimated from the changes in plasma concentrations and the total body clearance.
From the values, the area under the plasma concentration-time curve (AUC0-24 hr) up to 24 hours after administration and the total body clearance (CLtot) were calculated (the values h and i in Table 3). Further, the plasma concentrations at 0 hours and 0.25 hours after administration (the values a and b in Table 3) were averaged to obtain the average plasma concentration from 0 hours to 0.25 hours (the value j in Table 3), and the amount of antisense oligomer excreted per body weight up to 0.25 hours (the value k in Table 3) was calculated by using CLtot (the value i in Table 3). The amount of urine up to 0.25 hours after administration was assumed to be 3.91 mL, based on the fact that the daily amount of urine of cynomolgus monkeys (body weight: 5 kg) was 375 mL, and the urinary antisense oligomer concentration at 0.25 hours after administration was then estimated (the value 1 in Table 3).

[2] = Plasma concentrations and estimation of urinary D-mannitol concentration after administration to cynomolgus monkeys; format: in vivo; details: 500 mg/kg; for concentration at 4 h / concentration at 1 h / concentration at 8 h / AUC(0-t) / clearance: cynomolgus monkey, plasma; for concentration at 4 h / concentration at 1 h / concentration at 8 h / Plasma concentration 0 hr (a) / Plasma concentration 0.25 hr (b) / Plasma concentration 24 hr (f): average of 3 animals; for concentration at 1 h: read-out: Plasma concentration 1 hr (c); for concentration at 8 h: read-out: Plasma concentration 8 hr (e); for AUC(0-t): read-out: AUC0-24 hr (g); for clearance: read-out: CLtot (h) (converted); for Estimated urinary concentration at 0.25 hr (k): amount of urine up to 0.25 hr assumed 3.91 mL; for Average plasma concentration from 0 hr to 0.25 hr (i): average of values a and b; for Amount excreted up to 0.25 hr (j): calculated by using CLtot
Description: as §1
20% D-mannitol was diluted to 50 mg/mL with physiological saline, the diluted solution thus obtained was administered at 10 mL/kg to 3 male and 3 female cynomolgus monkeys aged 1 to 2 year-old, and the plasma concentrations were then measured at 0 hours (immediately after administration), 0.25 hours, 1 hour, 4 hours, 8 hours, and 24 hours after administration (each of the values a, b, c, d, e, and f in Table 2 was an average value of 3 animals). From the values, the area under the plasma concentration-time curve (AUC0-24 hr) up to 24 hours after administration and the total body clearance (CLtot) were calculated (the values g and h in Table 2). Further, the plasma concentrations at 0 hours and 0.25 hours after administration (the values a and b in Table 2) were averaged to obtain the average plasma concentration from 0 hours to 0.25 hours (the value i in Table 2), and the amount of D-mannitol excreted per body weight up to 0.25 hours (the value j in Table 2) was calculated by using CLtot (the value h in Table 2). The amount of urine up to 0.25 hours after administration was assumed to be 3.91 mL, based on the fact that the daily amount of urine of cynomolgus monkeys (body weight: 5 kg) was 375 mL (B Clark, D A Smith Pharmacokinetics and toxicity testing. Crit Rev Toxicol. 1984; 12 (4): 343-85.), and the urinary mannitol concentration at 0.25 hours after administration was then estimated (the value k in Table 2).
The estimated urinary concentration obtained as above was averaged, and the urinary concentration shortly after administration in a case of administering 500 mg/kg of D-mannitol was estimated to be 127.5 mg/mL. Since D-mannitol is rarely distributed in the body and rapidly excreted in urine without undergoing metabolism, it can be assumed that there is a linear relationship between the amount administered and the urinary concentration. Accordingly, by using the following formulas, the urinary concentration was converted into the amount of D-mannitol administered, and the amount administered was then converted into concentrations in the formulations at the time of administration (at the time of use) according to the body weight and the amount of dosing solution.

With “PMO No. 12: phosphorodiamidate morpholino antisense oligomer, sequence CCTCCGGTTCTGAAGGTGTTC, 5′-end Group(2) (all phosphorodiamidate morpholino (PMO); further chemistry not fully specified)” the “AUC0-24 hr (h)” value ([1]; 10 mg/kg) was 50.25 µg·h/mL, the “CLtot (i)” value ([1]; 10 mg/kg) was 3.317 mL/min/kg and the “Plasma concentration 0 hr (a)” value ([1]; 10 mg/kg) was 137.6 µg/mL. For the same compound, the “Plasma concentration 0.25 hr (b)” value ([1]; 10 mg/kg) was 30.95 µg/mL, the “Plasma concentration 0.5 hr (c)” value ([1]; 10 mg/kg) was 19.06 µg/mL and the “Plasma concentration 1 hr (d)” value ([1]; 10 mg/kg) was 9.79 µg/mL. For the same compound, the “Plasma concentration 2 hr (e)” value ([1]; 10 mg/kg) was 4.328 µg/mL, the “Plasma concentration 6 hr (f)” value ([1]; 10 mg/kg) was “Below detection limit” and the “Plasma concentration 24 hr (g)” value ([1]; 10 mg/kg) was “Below detection limit”. For the same compound, the “Estimated urinary concentration at 0.25 hr (l)” value ([1]; 10 mg/kg) was 5.362 mg/mL, the “Average plasma concentration from 0 hr to 0.25 hr (j)” value ([1]; 10 mg/kg) was 84.28 µg/mL and the “Amount excreted up to 0.25 hr (k)” value ([1]; 10 mg/kg) was 4193 µg/kg. For the same compound, the “AUC0-24 hr (h)” value ([1]; 60 mg/kg) was 269.3 µg·h/mL, the “CLtot (i)” value ([1]; 60 mg/kg) was 3.713 mL/min/kg and the “Plasma concentration 0 hr (a)” value ([1]; 60 mg/kg) was 805.9 µg/mL. The “Plasma concentration 0.25 hr (b)” value ([1]; 60 mg/kg) was 154.7 µg/mL, the “Plasma concentration 0.5 hr (c)” value ([1]; 60 mg/kg) was 100.9 µg/mL and the “Plasma concentration 1 hr (d)” value ([1]; 60 mg/kg) was 45.93 µg/mL. The “Plasma concentration 2 hr (e)” value ([1]; 60 mg/kg) was 18.46 µg/mL, the “Plasma concentration 6 hr (f)” value ([1]; 60 mg/kg) was 1.045 µg/mL and the “Plasma concentration 24 hr (g)” value ([1]; 60 mg/kg) was “Below detection limit”. The “Estimated urinary concentration at 0.25 hr (l)” value ([1]; 60 mg/kg) was 34.21 mg/mL, the “Average plasma concentration from 0 hr to 0.25 hr (j)” value ([1]; 60 mg/kg) was 480.3 µg/mL and the “Amount excreted up to 0.25 hr (k)” value ([1]; 60 mg/kg) was 26753 µg/kg.
In the case of `OC[C@@H](O)[C@@H](O)[C@H](O)[C@H](O)CO` [D-Mannitol, D-mannitol], the concentration at 4 h ([2]; female cynomolgus monkeys) is reported as 90.3 µg/mL, the concentration at 1 h ([2]; female cynomolgus monkeys) is reported as 720 µg/mL and the concentration at 8 h ([2]; female cynomolgus monkeys) is reported as 4.87 µg/mL. For the same compound, the AUC(0-t) ([2]; female cynomolgus monkeys) was 2830 µg·h/mL, the clearance ([2]; female cynomolgus monkeys) was 2.95 mL/min/kg and the concentration at 4 h ([2]; male cynomolgus monkeys) was 89.2 µg/mL. It also gave a concentration at 1 h ([2]; male cynomolgus monkeys) of 651 µg/mL, a concentration at 8 h ([2]; male cynomolgus monkeys) of 4.67 µg/mL and an AUC(0-t) ([2]; male cynomolgus monkeys) of 2680 µg·h/mL. The clearance ([2]; male cynomolgus monkeys) was 3.12 mL/min/kg, the “urinary concentration shortly after administration (estimated, averaged)” value ([2]; cynomolgus monkeys, average of male and female estimates) was 127.5 mg/mL and the “Plasma concentration 0 hr (a)” value ([2]; female cynomolgus monkeys) was 2950 µg/mL. The “Plasma concentration 0.25 hr (b)” value ([2]; female cynomolgus monkeys) was 1490 µg/mL, the “Plasma concentration 24 hr (f)” value ([2]; female cynomolgus monkeys) was “Below detection limit” and the “Estimated urinary concentration at 0.25 hr (k)” value ([2]; female cynomolgus monkeys) was 126 mg/mL. The “Average plasma concentration from 0 hr to 0.25 hr (i)” value ([2]; female cynomolgus monkeys) was 2220 µg/mL, the “Amount excreted up to 0.25 hr (j)” value ([2]; female cynomolgus monkeys) was 98235 µg/kg and the “Plasma concentration 0 hr (a)” value ([2]; male cynomolgus monkeys) was 2810 µg/mL. For the same compound, the “Plasma concentration 0.25 hr (b)” value ([2]; male cynomolgus monkeys) was 1510 µg/mL, the “Plasma concentration 24 hr (f)” value ([2]; male cynomolgus monkeys) was “Below detection limit” and the “Estimated urinary concentration at 0.25 hr (k)” value ([2]; male cynomolgus monkeys) was 129 mg/mL. For the same compound, the “Average plasma concentration from 0 hr to 0.25 hr (i)” value ([2]; male cynomolgus monkeys) was 2160 µg/mL and the “Amount excreted up to 0.25 hr (j)” value ([2]; male cynomolgus monkeys) was 100980 µg/kg.
